Biological target: tubulin
Test: inhibition of [3H]vinblastine binding
Parameters: species or system Bos taurus

`C/C=C/C(O)C(C)(C)[C@@H]1C\C=C/C=C\C=C/[C@H](OC)Cc2nc(co2)C(=O)O[C@H](C(C)(C)C(O)/C=C/C)C/C=C\C=C/C=C[C@H](OC)Cc2nc(co2)C(=O)O1` (stereo partly shown) [disorazole C1] gave a Ki of 4.5 ± 0.6 µM.

— publication PMC2649750 (The Journal of pharmacology and experimental therapeutics, 2008)
